PMC5482315 (Biochimica et Biophysica Acta, 2017)
Like-named read-outs stand apart in the source and are kept apart here.

How the values were obtained:
[1] = molecular target: T1, VanSA (Enterococcus faecium, UniProt Q06240); assay: VanSA autophosphorylation activity assay (Universal Kinase Activity Kit); type: biochemical, Enterococcus faecium BM4147; details: n = 3, result in words; for activity of VanSA (autophosphorylation): 5-fold molar equivalent of ligand, 20 min pre-incubation, 40 min with ATP, 25 mM HEPES pH 8.0, OD620 malachite green; for phosphorylation states of VanSA (activity profile): activity profile over 40 min
T1 sequence (Q06240 whole entry): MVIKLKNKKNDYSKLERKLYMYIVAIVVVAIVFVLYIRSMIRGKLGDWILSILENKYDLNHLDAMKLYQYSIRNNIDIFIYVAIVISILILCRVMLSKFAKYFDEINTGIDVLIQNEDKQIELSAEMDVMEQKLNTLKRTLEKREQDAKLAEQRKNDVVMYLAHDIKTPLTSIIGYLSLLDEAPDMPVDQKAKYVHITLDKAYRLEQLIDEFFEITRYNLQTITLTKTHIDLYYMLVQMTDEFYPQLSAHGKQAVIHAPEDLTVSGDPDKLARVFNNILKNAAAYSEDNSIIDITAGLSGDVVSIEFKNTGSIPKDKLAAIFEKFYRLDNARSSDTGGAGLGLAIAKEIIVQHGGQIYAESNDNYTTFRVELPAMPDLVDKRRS
Experimental: Assays were conducted as per the instructions provided in the R&D Systems Universal Kinase Activity Kit (Catalogue # EA004, R&D), changing the pH to 8.0; therefore all assays were conducted in 25 mM HEPES pH 8.0, 150 mM NaCl, 10 mM MgCl2, and 10 mM CaCl2. Compatibility checks for the activity of CD39L2 were made in the new conditions. A phosphate standard curve in the new assay conditions was used to determine the conversion factor (CF) for CD39L2 by calculating the slope of OD620 × phosphate input (KH2PO4). This CF was used in later calculations to determine the amount of PO4^2 − produced in later experiments. For ligand screens, VanSA (0.2 μg) was incubated in the absence and presence of 5-fold molar equivalent of ligands for 20 min prior to the initiation of autophosphorylation by the addition of ATP; after which autophosphorylation was allowed to proceed for 40 min before reactions were stopped by the addition of 30 μl Malachite Green Reagent A (ammonium molybdate in 3 M sulphuric acid) at t = 60. 100 μl distilled H2O was added to each well, followed by 30 μl of Malachite Reagent B (malachite green oxalate and polyvinyl alcohol) and the colour allowed to develop for 20 min before determining the optical density at 620 nm.

[2] = molecular target: T1, VanSA; assay: thermal denaturation of VanSA by far-UV CD (melting temperature); type: binding, Enterococcus faecium BM4147; details: 5-fold molar equivalent of ligand; for Melting temperature (Tm) of VanSA in the presence of screened ligands: monitored at 222 nm, 20–95 °C in 5 °C increments, 10 mM Tris–HCl pH 8.0 ligand stocks, 30 min at 20 °C, VanSA alone 44 ± 0.71
Experimental: (§1) Ligand-containing samples were performed by addition of 5-fold molar equivalent of ligand stocks in 10 mM Tris–HCl pH 8.0 (control incubated with equivalent volume of 10 mM Tris–HCl pH 8.0). All samples were incubated at 20 °C for 30 min prior to data collection. All data was analysed using CDApps where the mean residue weight of VanSA was taken to be 113. Unless otherwise stated, all spectra presented are difference spectra where all relevant background buffers, ligands etc. have been subtracted. Data acquired when the HT of the detector (PMT) was equal to or > 600 V were excluded from the analyses. Far-UV measurements (180–260 nm) were commonly collected using 0.5 mg/ml of VanSA with bandwidth of 1 nm and 1 s integration time. Data presented in molar extinction (Δε). Temperature denaturation measurements were collected over the temperatures (20 °C–95 °C, in 5 °C increments) in the absence and presence of ligands. Samples were incubated at the initial 20 °C for 30 min after ligand or solvent addition prior to data acquisition. At each temperature step, reactions were incubated for 2 min prior to data collection (1 scan). A final scan was acquired post-temperature ramp after returning to 20 °C and incubation for 20 min before data acquisition. Data was analysed using CDApps to obtain difference spectra where all controls (buffers, ligands, etc.) had been subtracted. Change in CD (mdeg) at a specific wavelength was transferred to OriginPro® 9 and plotted against the corresponding temperature for fitting using Gibbs-Helmholtz equation derived from Boltzmann distribution, [65] sigmoidal two-state denaturation curve to a Boltzmann distribution and the expression modified to include parameters for fitting of thermal denaturation data for the calculation of the melting temperature (Tm).

[3] = cited from earlier work; for Kd: surface plasmon resonance and other studies, read-out: kd for vancomycin binding
Text: Using model cell wall precursor peptides such as N-acetyl-D-Ala-D-Ala, binding studies in aqueous solution have established that for many glycopeptides, the formation of entropically favourable asymmetric, back-to-back homodimers of the antibiotic, [11], [12] is mediated by sugar-sugar recognition, [13].

[4] = molecular target: T1, VanSA; assay: near-UV CD ligand binding screen of VanSA; parameters: species or system Enterococcus faecium BM4147; details: 5-fold molar equivalent of ligand, qualitative
Experimental: Ligand-containing samples were performed by addition of 5-fold molar equivalent of ligand stocks in 10 mM Tris–HCl pH 8.0 (control incubated with equivalent volume of 10 mM Tris–HCl pH 8.0). All samples were incubated at 20 °C for 30 min prior to data collection. All data was analysed using CDApps where the mean residue weight of VanSA was taken to be 113. Unless otherwise stated, all spectra presented are difference spectra where all relevant background buffers, ligands etc. have been subtracted. Data acquired when the HT of the detector (PMT) was equal to or > 600 V were excluded from the analyses. Far-UV measurements (180–260 nm) were commonly collected using 0.5 mg/ml of VanSA with bandwidth of 1 nm and 1 s integration time. Data presented in molar extinction (Δε). […] Data was analysed using CDApps to obtain difference spectra where all controls (buffers, ligands, etc.) had been subtracted. […]
Near-UV measurements (260–350 nm) were collected using 1 mg/ml of protein using 10 mm pathlength cell, 2 nm bandwidth, 1 nm increments and 1 s integration. […] Change in CD (mdeg) a specific wavelength was monitored, the values transferred to OriginPro® and plotted against respective ligand concentration (M) and fitted with a hill1 binding or biphasic dose response function to determine the kd for binding.

[5] = molecular target: T1, VanSA; assay: near-UV CD titration of VanSA with ligand (binding constant); parameters: species or system Enterococcus faecium BM4147
Experimental: as §1
Near-UV measurements (260–350 nm) were collected using 1 mg/ml of protein using 10 mm pathlength cell, 2 nm bandwidth, 1 nm increments and 1 s integration. Titration experiments were conducted as described for standard near-UV measurements, with the modification of measurements collected after the addition of incremental volumes of ligand stock as described previously, [70]. Change in CD (mdeg) a specific wavelength was monitored, the values transferred to OriginPro® and plotted against respective ligand concentration (M) and fitted with a hill1 binding or biphasic dose response function to determine the kd for binding.

[6] = test system: VanSsc; parameters: method as in PMID 20383152; details: result in words; cited from earlier work
Text: The nature of the activating inducer for VanA-type resistance remains unknown. […] Other proposed ligands include the antibiotic-peptidoglycan precursor complex and the accumulating peptidoglycan precursors as a result of vancomycin mode of action, [54]. Here, we describe the use of in vitro approaches to further characterise the ligand-induced activities of VanSA. || Previous studies identified a 4-amino-acid motif (DQGW) from the predicted extracellular binding region of VanSsc (equivalent to the type B VanS receptor in soil actinomycetes) to which a modified vancomycin photoaffinity probe bound.

[7] = molecular target: T1, VanSA; assay: fluorescence emission of VanSA Trp residues with antibiotics; type: binding, Enterococcus faecium BM4147; details: excitation 295 nm, equivalent ratio 1:7, 23 °C; n = 3; VanSA alone λmax 334 nm (blue shift)
Experimental: Fluorescence spectroscopy was carried out using a Chirascan-Plus CD Spectrometer (Applied Photophysics) using 1 cm pathlength cell (1 cm × 1 cm, 4 mm × 4 mm window) at 23 °C, 5 nm bandwidth and 600 V, 295 nm excitation wavelength to excite the VanSA Trp residues was applied to the sample and emission monitored between 300 and 500 nm in 1 nm increments. Samples incubated at 20 °C for 30 min prior to data collection.
Data analysis performed using CDApps to obtain values which have been buffer subtracted and dilution-corrected for all components (F values) (protein only, ligand only, protein-ligand). Fo values were determined by normalisation to the initial value for each condition, followed by calculation of F/Fo using OriginPro® 9. Standard deviation (n = 3) shown by error bars.

Compound	activity of VanSA (autophosphorylation) [1]	Melting temperature (Tm) of VanSA in the presence of screened ligands [2]	phosphorylation states of VanSA (activity profile) [1]	changes in local tertiary structure (tyrosine/tryptophan region) [4]	binding mechanism ([5]; near-UV CD titration)	fluorescence emission λmax of VanSA upon addition of antibiotic [7]	also measured
CC(=O)N[C@@H]1[C@@H](O)[C@H](O)[C@@H](CO)O[C@H]1O [N-acetylglucosamine, N-Acetyl-D-glucosamine]	decreases in activity						
CC(=O)N[C@H]1C(O)O[C@H](CO)[C@@H](O)[C@@H]1O[C@H](C)C(=O)O (some centres unmarked) [N-acetylmuramic acid, N-Acetylmuramic acid]	decreases in activity	44 ± 0.63 °C					
CN[C@H](CC(C)C)C(=O)N[C@H]1C(=O)N[C@@H](CC(N)=O)C(=O)N[C@H]2C(=O)N[C@H]3C(=O)N[C@H](C(=O)N[C@H](C(=O)O)c4cc(O)cc(O)c4-c4cc3ccc4O)[C@H](O)c3ccc(c(Cl)c3)Oc3cc2cc(c3O[C@@H]2O[C@H](CO)[C@@H](O)[C@H](O)[C@H]2O[C@H]2C[C@](C)(N)[C@H](O)[C@H](C)O2)Oc2ccc(cc2Cl)[C@H]1O [vancomycin]	significant increases in the activity	79 ± 4.04 °C	quicker, longer-lived phosphorylation states	changes to the tyrosine/tryptophan region	one-step process of moderate affinity	328 nm	Kd ([3]; ref 17): 1.32 µM; Kd ([3]; ref 18): 2.7 µM; Kd ([3]; ref 19): 3.39 µM; Kd [5]: 70 µM; Hill coefficient ([5]; near-UV CD titration, Hill 1 function): 1.65 ± 0.84; thermal stability of VanSA ([2]; far-UV thermal denaturation, result in words): significant increase of the thermal stability; binding to VanS of actinomycetes [6]: shown to bind in type A equivalent systems of actinomycetes
Ala-D-γ-Glu-Lys-D-Ala-D-Ala [peptidoglycan component]		51 ± 3.23 °C					
D-Ala-D-Ala		48 ± 4.07 °C					
teicoplanin	significant increases in the activity	47 ± 5.08 °C	quicker, longer-lived phosphorylation states	changes to the tyrosine/tryptophan region	two-step mechanism	329 nm	potency compared with vancomycin ([3]; in vitro and in vivo, result in words): greater potency than vancomycin; Hill coefficient ([5]; near-UV CD titration, Bi Dose Response function, two-step, first value): 0.97 ± 0.77; Hill coefficient ([5]; near-UV CD titration, Bi Dose Response function, two-step, second value): 0.977 ± 0.76; Kd ([5]; near-UV CD titration, change in CD (mdeg) at 292 nm, BidoseResponse function, two-step mechanism, first value printed in picture, VanSA 1 mg/ml, n = 4, read-out: Binding constant (kd)): 170 µM; Kd ([5]; near-UV CD titration, change in CD (mdeg) at 292 nm, BidoseResponse function, two-step mechanism, second value printed in picture, VanSA 1 mg/ml, n = 4, read-out: Binding constant (kd)): 30 µM
